Data reported in paper PMC7315563, “Bioactive fluorenes. Part III: 2,7-dichloro-9H-fluorene-based thiazolidinone and azetidinone analogues as anticancer and antimicrobial against multidrug resistant strains agents” (BMC Chemistry, 2020).
Converted amounts (≈) assume the structure as drawn.

Assays:
[1] = tested on: MDA-MB-231 human breast cancer cells; assay: cell viability assay (MTT); format: cell-based; conditions: 24 h; for viability at 1 µg/mL: read-out: Validity (%) for sample concentrations (µg/mL) 1; for viability at 10 µg/mL: read-out: Validity (%) for sample concentrations (µg/mL) 10; for viability at 31.25 µg/mL: read-out: Validity (%) for sample concentrations (µg/mL) 31.25; for viability at 62.5 µg/mL: read-out: Validity (%) for sample concentrations (µg/mL) 62.5; for viability at 125 µg/mL: read-out: Validity (%) for sample concentrations (µg/mL) 125; for viability at 250 µg/mL: read-out: Validity (%) for sample concentrations (µg/mL) 250; for viability at 500 µg/mL: read-out: Validity (%) for sample concentrations (µg/mL) 500
In short: (§1)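 MTT read-out (absorbance 570 nm) after 24 h compound exposure. Doses 0–500 µg/mL (0, 1, 10, 31.25, 62.5, 125, 250, 500). RPMI-1640/10% FBS, 5000 cells/well.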

[2] = tested on: WI-38 human normal fibroblast cells; assay: cell viability assay (MTT); format: cell-based; conditions: 24 h; for viability at 31.25 µg/mL: read-out: Validity (%) for sample concentrations (µg/mL) 31.25; for viability at 62.5 µg/mL: 62.50 µg/mL, read-out: Validity (%) for sample concentrations (µg/mL) 62.50; for viability at 125 µg/mL: read-out: Validity (%) for sample concentrations (µg/mL) 125; for viability at 250 µg/mL: read-out: Validity (%) for sample concentrations (µg/mL) 250; for viability at 500 µg/mL: read-out: Validity (%) for sample concentrations (µg/mL) 500
In short: as §1

[3] = tested on: A549 human lung cancer cells; assay: cell viability assay (MTT); format: cell-based; conditions: 24 h; for viability at 1 µg/mL: read-out: Validity (%) for sample concentrations (µg/mL) 1; for viability at 10 µg/mL: read-out: Validity (%) for sample concentrations (µg/mL) 10; for viability at 31.25 µg/mL: read-out: Validity (%) for sample concentrations (µg/mL) 31.25; for viability at 62.5 µg/mL: 62.50 µg/mL, read-out: Validity (%) for sample concentrations (µg/mL) 62.50; for viability at 125 µg/mL: read-out: Validity (%) for sample concentrations (µg/mL) 125; for viability at 250 µg/mL: read-out: Validity (%) for sample concentrations (µg/mL) 250; for viability at 500 µg/mL: read-out: Validity (%) for sample concentrations (µg/mL) 500; for viability at 1000 µg/mL: read-out: Validity (%) for sample concentrations (µg/mL) 1000
S. aureus = assay: MIC by broth microdilution method (resazurin end point); format: cell-based; conditions: Staphylococcus aureus; S. aureus; 24 h at 37 °C; read-out: MIC
Procedure: Determination of Minimum inhibitory concentrations (MIC) of flourene derivatives was done using broth microdilution method. The procedure involved preparation of twofold dilutions of the fluorene derivatives ranging from (500–7.8 μg/mL) in sterile Mueller–Hinton broth inside the wells of 96-well microplate (Sarstedt, Germany). The inoculums of test strains prepared from fresh overnight cultures were adjusted to 0.5 McFarland standards, which equals to 1–2 × 10^8 CFU/mL for bacteria, the procedure was done according to CLSI 2012 [42]. […] For this assay the positive control agents were vancomycin (range: 0.7–50 μg/mL), gentamicin (range: 0.15–10 μg/mL) and the negative control was 1% DMSO.
For proper determination of the MIC end point resazurin dye has been used. A stock solution of resazurin sodium salt powder (Titan Biotech) was prepared at 0.02% (wt/vol) in distilled water, sterilized by filtration through a […] filter into a sterile light protected container then stored protected from light at 4 °C for up to 1 week, or at − […] for long term use, then 10–15% resazurin solution of the total volume in wells was added to each well and incubation for 1–4 h at 37 °C was done. A change in color from blue to pink indicates the growth of bacteria, and MIC was defined as the lowest concentration of the drug that prevented this change in color.

[4] = tested on: Staphylococcus aureus (S. aureus), multidrug resistant clinical isolate; assay: agar well diffusion assay; format: cell-based; conditions: Staphylococcus aureus; S. aureus; 500 µg/mL of tested compound; 24 h
In short: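 Multidrug-resistant clinical isolates swabbed on Mueller–Hinton agar at about 1–5 × 10^5 CFU/mL; 0.5 cm wells received 50 μL compound at 500 μg/mL in 1% DMSO. Incubation 24 h, 37 °C for bacteria and C. albicans, 25 °C for Aspergillus; inhibition zone diameter measured in mm.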

Row | SMILES | viability at 1 µg/mL [1] | viability at 10 µg/mL [1] | viability at 31.25 µg/mL [1] | viability at 62.5 µg/mL [1] | viability at 125 µg/mL [1] | viability at 250 µg/mL [1] | viability at 500 µg/mL [1] | IC50 [1] | viability at 31.25 µg/mL [2] | viability at 62.5 µg/mL [2] | viability at 125 µg/mL [2] | viability at 250 µg/mL [2] | viability at 500 µg/mL [2] | IC50 [2] | viability at 1 µg/mL [3] | viability at 10 µg/mL [3] | viability at 31.25 µg/mL [3] | viability at 62.5 µg/mL [3] | viability at 125 µg/mL [3] | viability at 250 µg/mL [3] | also measured
1 | COc1cc(C2SCC(=O)N2c2nc(-c3cc(Cl)cc4c3-c3ccc(Cl)cc3C4)cs2)ccc1O (stereo not shown) [5h, 3-(4-(2,7-Dichloro-9H-fluoren-4-yl)thiazol-2-yl)-2-(4-hydroxy-3-methoxyphenyl)thiazolidin-4-one] | 90.9% | 82.8% | 79.3% | 76.8% | 71.7% | 61.7% | 56.7% | > 500 µg/mL | 95% | 81.7% | 78.7% | 72.8% | 66.2% | > 500 µg/mL | 92.9% | 91.4% | 90.3% | 88.7% | 85.7% | 82.7% | viability at 500 µg/mL [3]: 77.2%; viability at 1000 µg/mL [3]: 68%; IC50 [3]: 1610 µg/mL (≈ 2970 µM); MIC (S. aureus): 62.5 µg/mL (≈ 115 µM); melting point: 85 to 87 °C; zone of inhibition at 500 µg/mL [4]: 11 mm
2 | CN(C)c1ccc(C2C(Cl)C(=O)N2c2nc(-c3cc(Cl)cc4c3-c3ccc(Cl)cc3C4)cs2)cc1 (stereo not shown) [6e, 3-Chloro-1-(4-(2,7-dichloro-9H-fluoren-4-yl)thiazol-2-yl)-4-(4-(dimethylamino)phenyl)-azetidin-2-one] | 98.2% | 90.2% | 89.9% | 85.2% | 69.2% | 41.9% | 39.4% | 215 µg/mL (≈ 397 µM) | 68.8% | 52.5% | 45.6% | 38.6% | 26.8% | 65.4 µg/mL (≈ 121 µM) | 95.4% | 90.3% | 87.5% | 81.7% | 71.1% | 50.7% | viability at 500 µg/mL [3]: 33.2%; viability at 1000 µg/mL [3]: 28.8%; IC50 [3]: 276 µg/mL (≈ 510 µM); MIC (S. aureus): 62.5 µg/mL (≈ 116 µM); melting point: 110 to 111 °C; zone of inhibition at 500 µg/mL [4]: 12 mm
